Results published in ChEMBL document CHEMBL1139830, “Glycosidic juvenogens: derivatives bearing alpha,beta-unsaturated ester functionalities” (2007).
Calls of active or inactive are those of the source. No cut-off for these calls is given here.

test system: Pyrrhocoris apterus; test: Juvenilizing effect assessed as inhibition of metamorphosis per individual in red firebug by drinking assay; type: functional

SMILES	ID50 [µg]	Activity
CCOC(=O)/C=C(\C)COc1ccc(C[C@@H]2CCCC[C@@H]2O[C@@H]2O[C@H](CO)[C@H](O)[C@H](O)[C@H]2O)cc1	0.11	–
CCOC(=O)/C=C(\C)COc1ccc(C[C@@H]2CCCC[C@@H]2O)cc1	0.05	–
CCOC(=O)/C=C(/C)COc1ccc(C[C@H]2CCCC[C@@H]2O[C@@H]2O[C@H](CO)[C@H](O)[C@H](O)[C@H]2O)cc1	3	–
CCOC(=O)/C=C(/C)COc1ccc(C[C@@H]2CCCC[C@@H]2O)cc1	18	–
CCOC(=O)/C=C(\C)COc1ccc(C[C@H]2CCCC[C@@H]2O[C@@H]2O[C@H](CO)[C@H](O)[C@H](O)[C@H]2O)cc1	1.9	–
CCOC(=O)/C=C(/C)COc1ccc(C[C@H]2CCCC[C@@H]2O)cc1 (stereo in doubt; Z-2b)	–	inactive
CCOC(=O)/C=C(\C)COc1ccc(C[C@@H]2CCCC[C@@H]2O[C@@H]2O[C@H](CO)[C@@H](O)[C@H](O)[C@H]2O)cc1	0.0021	–
CCOC(=O)/C=C(/C)COc1ccc(C[C@H]2CCCC[C@@H]2O)cc1 (stereo in doubt; Z-2a)	–	inactive
CCOC(=O)/C=C(/C)COc1ccc(C[C@@H]2CCCC[C@@H]2O[C@@H]2O[C@H](CO)[C@@H](O)[C@H](O)[C@H]2O)cc1	1.1	–
CCOC(=O)/C=C(/C)COc1ccc(C[C@H]2CCCC[C@@H]2O[C@@H]2O[C@H](CO)[C@@H](O)[C@H](O)[C@H]2O)cc1 (stereo in doubt; Z-14a)	–	inactive
CCOC(=O)/C=C(/C)COc1ccc(C[C@H]2CCCC[C@@H]2O[C@@H]2O[C@H](CO)[C@@H](O)[C@H](O)[C@H]2O)cc1 (stereo in doubt; Z-14b)	–	inactive
CCOC(=O)/C=C(\C)COc1ccc(C[C@H]2CCCC[C@@H]2O[C@@H]2O[C@H](CO)[C@@H](O)[C@H](O)[C@H]2O)cc1	1.3	–
CCOC(=O)/C=C(/C)COc1ccc(C[C@@H]2CCCC[C@@H]2O[C@@H]2O[C@H](CO)[C@H](O)[C@H](O)[C@H]2O)cc1	2.3	–
CCOC(=O)/C=C(\C)COc1ccc(C[C@H]2CCCC[C@@H]2O)cc1	0.32	–
